Source: PubChem BioAssay AID248 (DTP/NCI, 2004)
Several values for one entry are separate records, joined by “and”; a condition that tells them apart may be missing. Identical values can stand only once. Inconclusive results and toxic doses are left out. Cut-off read from the data, not from the text of the source: active = T/C of 150% or more; inactive = T/C below 125%.

System: L1210 leukemia ip in BDF1 mice, survival T/C
Assay: NCI In Vivo Anticancer Drug Screen. Data for tumor model L1210 Leukemia (intraperitoneal) in B6D2F1 (BDF1) mice
Conditions: endpoint: mean survival time, higher = longer survival
Summary of the method: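 Value reflects the ratio of survival in compound-treated mice to survival in vehicle-treated controls, with both groups carrying the same transplanted tumor.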

[1] = dose: 100.0 mg/kg/injection, schedule: Q04DX003 (ip), vehicle: saline with Tween-80
[2] = dose: 200.0 mg/kg/injection, schedule: Q04DX003 (ip), vehicle: saline with Tween-80
[3] = dose: 400.0 mg/kg/injection, schedule: Q04DX003 (ip), vehicle: saline with Tween-80
[4] = dose: 100.0 mg/kg/injection, schedule: Q01DX009 (ip), vehicle: Klucel (hydroxypropylcellulose) (HPC)
[5] = dose: 200.0 mg/kg/injection, schedule: Q01DX009 (ip), vehicle: Klucel (hydroxypropylcellulose) (HPC)
[6] = dose: 100.0 mg/kg/injection, schedule: Q01DX001 (ip), vehicle: Klucel (hydroxypropylcellulose) (HPC)
[7] = dose: 200.0 mg/kg/injection, schedule: Q01DX001 (ip), vehicle: Klucel (hydroxypropylcellulose) (HPC)
[8] = dose: 400.0 mg/kg/injection, schedule: Q01DX001 (ip), vehicle: Klucel (hydroxypropylcellulose) (HPC)
[9] = dose: 50.0 mg/kg/injection, schedule: Q01DX009 (ip), vehicle: Klucel (hydroxypropylcellulose) (HPC)
[10] = dose: 12.5 mg/kg/injection, schedule: Q01DX009 (ip), vehicle: saline with Tween-80
[11] = dose: 25.0 mg/kg/injection, schedule: Q01DX009 (ip), vehicle: saline with Tween-80
[12] = dose: 50.0 mg/kg/injection, schedule: Q01DX009 (ip), vehicle: saline with Tween-80
[13] = dose: 40.0 mg/kg/injection, schedule: Q01DX009 (ip), vehicle: Klucel (hydroxypropylcellulose) (HPC)
[14] = dose: 75.0 mg/kg/injection, schedule: Q01DX001 (ip), vehicle: Klucel (hydroxypropylcellulose) (HPC)
[15] = dose: 75.0 mg/kg/injection, schedule: Q01DX009 (ip), vehicle: Klucel (hydroxypropylcellulose) (HPC)
[16] = dose: 150.0 mg/kg/injection, schedule: Q01DX001 (ip), vehicle: Klucel (hydroxypropylcellulose) (HPC)
[17] = dose: 150.0 mg/kg/injection, schedule: Q01DX009 (ip), vehicle: Klucel (hydroxypropylcellulose) (HPC)
[18] = dose: 25.0 mg/kg/injection, schedule: Q04DX003 (ip), vehicle: saline with Tween-80
[19] = dose: 50.0 mg/kg/injection, schedule: Q04DX003 (ip), vehicle: saline with Tween-80
[20] = dose: 100.0 mg/kg/injection, schedule: Q01DX001 (ip), vehicle: other
[21] = dose: 200.0 mg/kg/injection, schedule: Q01DX001 (ip), vehicle: other
[22] = dose: 400.0 mg/kg/injection, schedule: Q01DX001 (ip), vehicle: other

Measured: T/C

CCCCCCCCCCCCC(=O)N1CCOCC1
inactive: [1] 122 % of control | [2] 107 % of control | [3] 104 % of control

Cc1c(Cl)c(C)c(Cl)c(Cl)c1Cl
inactive: dose: 100.0 mg/kg/injection, schedule: Q01DX001 (ip), vehicle: saline 106 % of control | dose: 100.0 mg/kg/injection, schedule: Q01DX009 (ip), vehicle: saline 101 % of control | dose: 100.0 mg/kg/injection, schedule: Q04DX003 (ip), vehicle: saline 89 % of control | dose: 200.0 mg/kg/injection, schedule: Q01DX001 (ip), vehicle: saline 98 % of control | dose: 200.0 mg/kg/injection, schedule: Q01DX009 (ip), vehicle: saline 108 % of control | dose: 200.0 mg/kg/injection, schedule: Q04DX003 (ip), vehicle: saline 87 % of control | dose: 400.0 mg/kg/injection, schedule: Q01DX001 (ip), vehicle: saline 96 % of control | dose: 400.0 mg/kg/injection, schedule: Q01DX009 (ip), vehicle: saline 94 % of control | dose: 400.0 mg/kg/injection, schedule: Q04DX003 (ip), vehicle: saline 94 % of control

C=CCSc1nccc(=O)[nH]1
inactive: [4] 110 % of control | [5] 96 % of control

O=C1NC2(CCCCCC2)C(=O)N1CN1CCOCC1
inactive: [6] 98 % of control | [7] 101 % of control | [8] 104 % of control

Nc1c(Cl)ncnc1NC1COC(CO)C1O (stereo not given)
inactive: [6] 100 % of control | [7] 110 % of control | [8] 100 % of control

OC1(C#CC2(O)CCCCC2)CCCCC1
inactive: [9] 98 % of control | [4] 89 % of control | dose: 100.0 mg/kg/injection, schedule: Q04DX003 (ip), vehicle: Klucel (hydroxypropylcellulose) (HPC) 98 % of control | [5] 102 % of control | dose: 200.0 mg/kg/injection, schedule: Q04DX003 (ip), vehicle: Klucel (hydroxypropylcellulose) (HPC) 90 % of control

c1cc[n+]2c(c1)-c1cccc[n+]1CCC2
inactive: dose: 100.0 mg/kg/injection, schedule: Q01DX001 (ip), vehicle: carboxymethylcellulose (CMC) 94 % of control | dose: 200.0 mg/kg/injection, schedule: Q01DX001 (ip), vehicle: carboxymethylcellulose (CMC) 101 % of control | dose: 400.0 mg/kg/injection, schedule: Q01DX001 (ip), vehicle: carboxymethylcellulose (CMC) 92 % of control

CSC(=O)N=Nc1c(O)n(C)c(=O)n(C)c1=O
inactive: [10] 104 % of control | [11] 97 % of control | [12] 97 % of control and 87 % of control

CCCCCOC(=O)Nc1ccc(OCC)cc1
inactive: dose: 100.0 mg/kg/injection, schedule: Q04DX002 (ip), vehicle: Klucel (hydroxypropylcellulose) (HPC) 105 % of control | dose: 200.0 mg/kg/injection, schedule: Q04DX002 (ip), vehicle: Klucel (hydroxypropylcellulose) (HPC) 101 % of control | dose: 400.0 mg/kg/injection, schedule: Q04DX002 (ip), vehicle: Klucel (hydroxypropylcellulose) (HPC) 105 % of control

CC(=O)OC1=C(c2ccccc2)C(=O)c2ccccc21
inactive: [13] 94 % of control | [14] 95 % of control | [15] 94 % of control | [16] 96 % of control | [17] 88 % of control

CC1CCCN(C(=O)CCCCl)C1 (stereo not given)
inactive: dose: 100.0 mg/kg/injection, schedule: Q04DX002 (ip), vehicle: saline 96 % of control | dose: 200.0 mg/kg/injection, schedule: Q04DX002 (ip), vehicle: saline 99 % of control | dose: 400.0 mg/kg/injection, schedule: Q04DX002 (ip), vehicle: saline 99 % of control

O=CNC(CSC(c1ccccc1)c1ccccc1)C(=O)O (stereo not given)
inactive: [13] 108 % of control | [14] 86 % of control | [15] 105 % of control | [16] 93 % of control | [17] 103 % of control

CC(C)OCCSP(SCCOC(C)C)SCCOC(C)C
inactive: [18] 96 % of control | [19] 107 % of control | [1] 96 % of control

CCCCSc1cc(C)nc(SCCCC)n1
inactive: [9] 101 % of control | [4] 101 % of control | [5] 101 % of control

CC(C)CCNc1ccc(NCCC(C)C)cc1
inactive: [10] 100 % of control | dose: 12.5 mg/kg/injection, schedule: Q04DX003 (ip), vehicle: Klucel (hydroxypropylcellulose) (HPC) 104 % of control | [11] 100 % of control | dose: 25.0 mg/kg/injection, schedule: Q04DX003 (ip), vehicle: Klucel (hydroxypropylcellulose) (HPC) 96 % of control | [12] 96 % of control | dose: 50.0 mg/kg/injection, schedule: Q04DX003 (ip), vehicle: Klucel (hydroxypropylcellulose) (HPC) 96 % of control | dose: 75.0 mg/kg/injection, schedule: Q01DX009 (ip), vehicle: alcohol 86 % of control

O=C(O)c1ccc(COc2ccc([N+](=O)[O-])cc2Cl)cc1
inactive: dose: 100.0 mg/kg/injection, schedule: Q01DX009 (ip), vehicle: saline sonified 96 % of control | [1] 96 % of control | dose: 200.0 mg/kg/injection, schedule: Q01DX009 (ip), vehicle: saline sonified 97 % of control | [2] 96 % of control | [3] 101 % of control

COC(=O)C(O)(C#CC(C)(C)C)c1ccccc1 (stereo not given)
inactive: [20] 86 % of control | [21] 91 % of control | [22] 96 % of control

CC1CC=C(C(=O)O)CC1 (stereo not given)
inactive: dose: 50.0 mg/kg/injection, schedule: Q01DX001 (ip), vehicle: other 90 % of control | [20] 95 % of control | [21] 93 % of control | [22] 95 % of control

CCCCOP(=O)(Nc1ccc(Cl)cc1)OCCCC
inactive: dose: 100.0 mg/kg/injection, schedule: Q04DX002 (ip), vehicle: saline with Tween-80 101 % of control | dose: 200.0 mg/kg/injection, schedule: Q04DX002 (ip), vehicle: saline with Tween-80 94 % of control | dose: 400.0 mg/kg/injection, schedule: Q04DX002 (ip), vehicle: saline with Tween-80 105 % of control

CNC(=O)NC1CC(OC2CC(O)(C(C)=O)Cc3c(O)c4c(c(O)c32)C(=O)c2c(OC)cccc2C4=O)OC(C)C1O (stereo not given)
inactive: dose: 2.0 mg/kg/injection, schedule: Q04DX003 (ip), vehicle: water 103 % of control | dose: 3.12 mg/kg/injection, schedule: Q01DX009 (ip), vehicle: saline with Tween-80 108 % of control | dose: 4.0 mg/kg/injection, schedule: Q04DX003 (ip), vehicle: water 98 % of control | dose: 6.25 mg/kg/injection, schedule: Q01DX009 (ip), vehicle: saline with Tween-80 97 % of control | dose: 8.0 mg/kg/injection, schedule: Q04DX003 (ip), vehicle: water 107 % of control | [10] 103 % of control | dose: 12.5 mg/kg/injection, schedule: Q04DX003 (ip), vehicle: saline with Tween-80 100 % of control | dose: 16.0 mg/kg/injection, schedule: Q04DX003 (ip), vehicle: water 95 % of control and 103 % of control | [11] 112 % of control | [18] 100 % of control | dose: 32.0 mg/kg/injection, schedule: Q04DX003 (ip), vehicle: water 100 % of control | [12] 111 % of control | [19] 100 % of control | dose: 64.0 mg/kg/injection, schedule: Q04DX003 (ip), vehicle: water 104 % of control | [1] 100 % of control | dose: 125.0 micrograms/kg/injection, schedule: Q04DX003 (ip), vehicle: water 104 % of control | dose: 250.0 micrograms/kg/injection, schedule: Q04DX003 (ip), vehicle: water 104 % of control | dose: 500.0 micrograms/kg/injection, schedule: Q04DX003 (ip), vehicle: water 105 % of control | dose: 1000.0 micrograms/kg/injection, schedule: Q04DX003 (ip), vehicle: water 104 % of control | dose: 2000.0 micrograms/kg/injection, schedule: Q04DX003 (ip), vehicle: water 101 % of control
